Data set [1] relates to TK6 cells.
The target of data set [2] is T1, human androgen receptor (Homo sapiens, UniProt P10275).
T1 construct: host or cells: Chinese hamster ovary (CHO) cells, AR-EcoScreen GR KO M1, stably transfected, glucocorticoid receptor knocked out
T1 sequence (P10275 1-920): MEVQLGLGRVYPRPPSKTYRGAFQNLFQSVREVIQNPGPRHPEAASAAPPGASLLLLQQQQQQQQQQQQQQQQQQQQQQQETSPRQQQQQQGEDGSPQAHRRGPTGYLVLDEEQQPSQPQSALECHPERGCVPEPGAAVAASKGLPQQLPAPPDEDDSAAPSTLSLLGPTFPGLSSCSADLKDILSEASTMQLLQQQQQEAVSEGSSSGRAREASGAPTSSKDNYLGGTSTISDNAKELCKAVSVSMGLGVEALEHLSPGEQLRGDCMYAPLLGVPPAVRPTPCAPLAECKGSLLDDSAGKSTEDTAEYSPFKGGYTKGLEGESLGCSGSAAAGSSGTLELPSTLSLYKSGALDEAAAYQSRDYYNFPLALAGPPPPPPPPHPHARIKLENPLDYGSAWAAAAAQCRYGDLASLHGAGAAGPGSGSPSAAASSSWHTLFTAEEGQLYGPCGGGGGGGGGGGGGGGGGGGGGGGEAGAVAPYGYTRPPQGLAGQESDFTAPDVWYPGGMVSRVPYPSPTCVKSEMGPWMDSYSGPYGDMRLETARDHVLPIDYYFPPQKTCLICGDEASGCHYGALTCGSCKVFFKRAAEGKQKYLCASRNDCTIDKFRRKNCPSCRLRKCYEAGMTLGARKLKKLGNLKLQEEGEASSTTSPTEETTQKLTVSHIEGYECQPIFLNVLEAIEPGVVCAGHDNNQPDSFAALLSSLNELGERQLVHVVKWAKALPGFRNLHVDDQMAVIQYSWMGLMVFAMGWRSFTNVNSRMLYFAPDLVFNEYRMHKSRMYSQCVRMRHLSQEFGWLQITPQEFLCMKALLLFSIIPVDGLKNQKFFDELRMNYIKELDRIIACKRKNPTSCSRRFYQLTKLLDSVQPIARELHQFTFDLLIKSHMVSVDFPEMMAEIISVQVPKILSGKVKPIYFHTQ
The format is cell-based.

The subject of data set [3] is estrogen receptor (ER). The format is cell-based, human.
Data set [4] has as its system TK6 cells. More on the design: method as in Takakura et al. [2014]. The settings on record: concentrations below 12.5 µM, 3 h of treatment, with or without human and rat liver S9; ref Takakura et al. [2014]; cited from earlier work.
Data set [5] deals with estrogen receptor (ER).
The target of data set [6] is T1, human androgen receptor. The class given is cell-based. This is another data set of the same source.
Where [7] appears, read: DON compounds, S9 + PHI + PHII cofactors, [95% CI].
[8] abbreviates: DON compounds, S9 + PHII cofactors, [95% CI].
[9] abbreviates: DON compounds, S9 alone, [95% CI].
The mark [10] stands for this setting: DON compounds, no MAS, [95% CI].
[11] abbreviates: without exogenous MAS, initial concentration-range finding trials, 24 h.
Where [12] appears, read: DON compounds, S9 + PHI + PHII cofactors.
Setting [13] is: DON compounds, S9 + PHII cofactors.

Like-named read-outs stand apart in the source and are kept apart here. Some results are limits rather than exact numbers.

`CC1=C[C@H]2O[C@@H]3[C@H](O)C[C@](C)([C@@]2(CO)[C@H](O)C1=O)[C@]31CO1` [DON, deoxynivalenol]: in the data set with TK6 cells [1] (5 h exposure, alone, with S9 alone or S9 with cofactors, ZEN 6.25 and 12.50 µM, DON 0.78 and 1.56 µM), the “Micronuclei formation (% MN) versus vehicle controls” value is “neither ZEN nor DON alone or with the S9 alone or with cofactors had any statistically significant effect on % MN”. Besides, the “Micronuclei formation (% MN) versus vehicle control” value in the data set with TK6 cells [1] (24 h continuous exposure, without MAS, non-cytotoxic test concentrations) is “No statistically significant increases in % MN”. The “AR agonism EC10” value on human androgen receptor [2] (setting [7]) was 0.45 [0.39,0.52] µM; at human androgen receptor [2] (setting [8]), 0.38 [0.32,0.46] µM; on human androgen receptor [2] (setting [9]), 0.84 [0.72,0.98] µM; at human androgen receptor [2] (setting [10]) it was 0.87 [0.81,0.93] µM; at human androgen receptor [2] (setting [11]), 0.83 µM. Moreover, the “ER antagonism IC30” value with estrogen receptor (ER) [3] (setting [7]) is 0.37 [0.25,0.58] µM; in the data set on estrogen receptor (ER) [3] (setting [8]), 0.25 [0.18,0.38] µM; with estrogen receptor (ER) [3] (setting [9]) it was 0.75 [0.54,1.05] µM; in the data set with estrogen receptor (ER) [3] (setting [10]), 0.81 [0.69,1.00] µM; with estrogen receptor (ER) [3] (setting [11]), 0.91 µM. The MN formations result in the data set on TK6 cells [4] is reported as “did not induce any significant MN formations”. Further, the “ER agonism EC10” value in the data set with estrogen receptor (ER) [5] (setting [12]), with estrogen receptor (ER) [5] (setting [13]), in the data set on estrogen receptor (ER) [5] (setting [9]), in the data set with estrogen receptor (ER) [5] (setting [10]) and with estrogen receptor (ER) [5] (setting [11]) was “<LOD” throughout. Moreover, the “AR antagonism IC30” value was “<LOD” at human androgen receptor [6] (setting [12]); “<LOD” at human androgen receptor [6] (setting [13]); “<LOD” at human androgen receptor [6] (DON compounds, S9 alone); “<LOD” at human androgen receptor [6] (DON compounds, no MAS); “<LOD” at human androgen receptor [6] (setting [11]).

Source of the values: article PMC11258189, “Estrogenic, androgenic, and genotoxic activities of zearalenone and deoxynivalenol in in vitro bioassays including exogenous metabolic activation” (Mycotoxin Research, 2024).
